Measured values: patent publication US7825090B2, “Use of ghrelin and unacylated ghrelin compositions for treating insulin resistance” (Alizé Pharma SAS, priority 2004, dated 2010)
Entries after “also recorded” stand apart in the source; their conditions may differ. No end group written: not given here. *: point of attachment. Octanoyl = CCCCCCCC(=O)*

Experiments:
[1] = Serum total and acylated ghrelin concentrations after i.v. bolus injection (radioimmunoassay); design: species or system human; settings: in vivo, iv
Excerpt: (§1) Eight male subjects with a pituitary insufficiency but otherwise healthy, were asked to participate (range 21-69 yrs (age 55±10; mean±standard error of mean or SEM)) and a body mass index of 29.4±2.8 (mean±SEM). […] All subjects were admitted at the Clinical Research Unit. No alcoholic beverages were allowed from the day prior to admission until the end of the study. Also, all subjects were asked to skip the administration of their GH replacement every night prior to each of the 5 admission days. All subjects gave their written informed consent to participate in the study, which had been approved the hospital's Ethical Committee.
All subjects underwent the following five testing sessions, each after an overnight fast, in random order and at least 1 week apart: 1) placebo (saline 3 ml iv). 2) acylated ghrelin (Neosystem S.A.; Strasbourg, France; 1.0 μg/kg iv, using a bacterial filter system). […]
Acylated and total ghrelin concentrations were measured, using a commercially available radioimmunoassay (Linco research Inc. Missouri, USA). […] The lowest level of ghrelin that can be detected by this assay is […] when using a 100 μl sample size. […]
(§2) Differences between the several study days were calculated, using a Newman-Keuls Multiple Comparison one-way ANOVA test (GraphPad Prism 4 for Windows; GraphPad Inc. USA). […] Areas under the curve were calculated using the trapezoid rule.

GH deficient subjects [2] = assay: Serum glucose concentrations after i.v. AG, UAG, AG+GH or AG+UAG, before and after a standard lunch; format: in vivo, human; settings: for effect on serum glucose levels after a standard lunch: GH deficient subjects; for effect on serum glucose levels: first two hours after i.v. administration, before lunch, fasting
Excerpt: as §1
(§3) All subjects underwent the following five testing sessions, each after an overnight fast, in random order and at least 1 week apart: 1) placebo (saline 3 ml iv). 2) acylated ghrelin (Neosystem S.A.; Strasbourg, France; 1.0 μg/kg iv, using a bacterial filter system). 3) unacylated ghrelin (Neosystem S.A.; Strasbourg, France; 1.0 μg/kg iv, using a filter system). 4) acylated ghrelin (1.0 μg/kg iv) but this time after the normal GH replacement dose was administered 15 minutes before. 5) acylated ghrelin in combination with unacylated ghrelin (both 1.0 μg/kg iv, but via separate injection sites). All tests started in the morning at 09:30 am, 30′ after one or two indwelling catheters had been placed into an antecubital vein, kept patent by slow infusion of isotonic saline.
(§4) This meal was taken by all subjects all tests days.
(§5) Insulin was assessed with a radioimmunoassay (Medgenix Diagnostics, Brussels, Belgium; intra- and interassay coefficient of variation (CV) 13.7 and 8.0% respectively). Glucose was assessed with an automatic hexokinase method (Roche, Almere, The Netherlands). Free fatty acids were determined with an enzymatic […] method (Wako Chemicals GmbH, Neuss, Germany; intra- and interassay CV 1.1 and 4.1% respectively).
(§6) Differences between the several study days were calculated, using a Newman-Keuls Multiple Comparison one-way ANOVA test (GraphPad Prism 4 for Windows; GraphPad Inc. USA). P-values <0.05 were considered significant. Areas under the curve were calculated using the trapezoid rule.

GH deficient subjects [3] = assay: Serum free fatty acid concentrations after i.v. AG, UAG, AG+GH or AG+UAG, before and after a standard lunch; format: in vivo, human; settings: compounds administered 2-6 hrs before
Excerpt: as §1, with “Committee. […]” for “Committee.”
as §5, §2

GH deficient subjects [4] = assay: Insulin sensitivity judged from areas under the curve of glucose, insulin and FFA (FIG. 8, FIG. 9); format: in vivo, human
Excerpt: Eight male subjects with a pituitary insufficiency but otherwise healthy, were asked to participate (range 21-69 yrs (age 55±10; mean±standard error of mean or SEM)) and a body mass index of 29.4±2.8 (mean±SEM). […] All subjects were admitted at the Clinical Research Unit. No alcoholic beverages were allowed from the day prior to admission until the end of the study. Also, all subjects were asked to skip the administration of their GH replacement every night prior to each of the 5 admission days. All subjects gave their written informed consent to participate in the study, which had been approved the hospital's Ethical Committee. […] Insulin was assessed with a radioimmunoassay (Medgenix Diagnostics, Brussels, Belgium; intra- and interassay coefficient of variation (CV) 13.7 and 8.0% respectively). Glucose was assessed with an automatic hexokinase method (Roche, Almere, The Netherlands). Free fatty acids were determined with an enzymatic […] method (Wako Chemicals GmbH, Neuss, Germany; intra- and interassay CV 1.1 and 4.1% respectively). Differences between the several study days were calculated, using a Newman-Keuls Multiple Comparison one-way ANOVA test (GraphPad Prism 4 for Windows; GraphPad Inc. USA). […] Areas under the curve were calculated using the trapezoid rule.

GH deficient subjects [5] = assay: Serum insulin concentrations after i.v. AG, UAG, AG+GH or AG+UAG, before and after a standard lunch; format: in vivo, human; settings: for effect on serum insulin levels after a standard lunch: GH deficient subjects; for effect on serum insulin levels: first two hours after i.v. administration, before lunch, fasting
Excerpt: as §1, §3, §4, §5, §6

GH secretion = settings: compared with Ghrelin-28; cited from earlier work
cloned cells = settings: cited from earlier work

Row | Molecule | effect on unacylated ghrelin levels [1] | effect on serum glucose levels after a standard lunch (GH deficient subjects [2]) | effect on serum glucose levels (GH deficient subjects [2]) | effect on serum glucose levels (GH deficient subjects [2]; listed as acylated ghrelin) | effect on serum FFA levels after a standard lunch (GH deficient subjects [3]) | duration of decrease in insulin sensitivity after administration (GH deficient subjects [4]; after administration of acylated ghrelin) | effect on insulin sensitivity (GH deficient subjects [4]; period following lunch, AUC (FIG. 9)) | effect on serum insulin levels after a standard lunch (GH deficient subjects [5]) | effect on serum insulin levels (GH deficient subjects [5]) | effect on serum glucose levels (GH deficient subjects [2]; listed as unacylated ghrelin) | induction of GH secretion (GH secretion) | Ca2+ fluxes (cloned cells)
1 | CCCCCCCC(=O)OC[C@H](NC(=O)[C@H](CO)NC(=O)CN)C(=O)N[C@@H](Cc1ccccc1)C(=O)N[C@@H](CC(C)C)C(=O)N[C@@H](CO)C(=O)N1CCC[C@H]1C(=O)N[C@@H](CCC(=O)O)C(=O)N[C@@H](Cc1cnc[nH]1)C(=O)N[C@@H](CCC(N)=O)C(=O)N[C@@H](CCCNC(=N)N)C(=O)N[C@H](C(=O)N[C@@H](CCC(N)=O)C(=O)N[C@@H](CCC(N)=O)C(=O)N[C@@H](CCCNC(=N)N)C(=O)N[C@@H](CCCCN)C(=O)N[C@@H](CCC(=O)O)C(=O)N[C@@H](CO)C(=O)N[C@@H](CCCCN)C(=O)N[C@@H](CCCCN)C(=O)N1CCC[C@H]1C(=O)N1CCC[C@H]1C(=O)N[C@@H](C)C(=O)N[C@@H](CCCCN)C(=O)N[C@@H](CC(C)C)C(=O)N[C@@H](CCC(N)=O)C(=O)N1CCC[C@H]1C(=O)N[C@@H](CCCNC(=N)N)C(=O)O)C(C)C [AG] | induces an acute increase in unacylated ghrelin levels | increase serum glucose levels significantly | induces a significant hyperglycemia | immediately increases glucose and insulin levels | significantly increased FFA levels after lunch, compared to placebo | at least 6 hours | decreases insulin sensitivity, compared to placebo | increased insulin levels the most | immediately increases glucose and insulin levels | – | – | –
2 | CC(C)C[C@H](NC(=O)[C@H](CCCCN)NC(=O)[C@H](C)NC(=O)[C@@H]1CCCN1C(=O)[C@@H]1CCCN1C(=O)[C@H](CCCCN)NC(=O)[C@H](CCCCN)NC(=O)[C@H](CO)NC(=O)[C@H](CCC(=O)O)NC(=O)[C@H](CCCCN)NC(=O)[C@H](CCCNC(=N)N)NC(=O)[C@H](CCC(N)=O)NC(=O)[C@H](CCC(N)=O)NC(=O)[C@@H](NC(=O)[C@H](CCCNC(=N)N)NC(=O)[C@H](CCC(N)=O)NC(=O)[C@H](Cc1c[nH]cn1)NC(=O)[C@H](CCC(=O)O)NC(=O)[C@@H]1CCCN1C(=O)[C@H](CO)NC(=O)[C@H](CC(C)C)NC(=O)[C@H](Cc1ccccc1)NC(=O)[C@H](CO)NC(=O)[C@H](CO)NC(=O)CN)C(C)C)C(=O)N[C@@H](CCC(N)=O)C(=O)N1CCC[C@H]1C(=O)N[C@@H](CCCNC(=N)N)C(=O)O [UAG] | – | increase serum glucose levels significantly; also recorded: increases serum glucose levels significantly more than AG | to a lesser extent, UAG, induces a significant hyperglycemia | – | could not be observed | – | – | increased insulin levels the most, followed UAG | This does not occur | This does not occur | – | –
3 | Gly-Ser-[octanoyl]Ser-Phe-Leu-Ser-Pro-Glu-His-Gln-Arg-Val-Gln-Arg-Lys-Glu-Ser-Lys-Lys-Pro-Pro-Ala-Lys-Leu-Gln-Pro-Arg (GSS(Octanoyl)FLSPEHQRVQRKESKKPPAKLQPR; listed as Homo sapiens) [des Gln-14 ghrelin] | – | – | – | – | – | – | – | – | – | – | induces GH secretion with similar potency as Ghrelin-28 | elicits Ca^2+ fluxes in cloned cells
